# Measured values published in PubChem BioAssay (NCI).
# Where “and” joins values, the source holds several entries; their conditions need not be identical. Identical values can stand only once.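 Five concentrations, 48 hours, 96-well plates. Here, GI50 denotes the concentration required for 50% inhibition of growth. TGI is the concentration that stops growth completely.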
# How the values were obtained:
# Test in all cases: NCI anticancer screen, dose series, 48 h
# UO-31 renal = system: UO-31 renal
# SK-MEL-28 melanoma = system: SK-MEL-28 melanoma
# DMS 114 small cell lung = system: DMS 114 small cell lung
# MDA-MB-435 = system: MDA-MB-435
# OVCAR-8 ovarian = system: OVCAR-8 ovarian
# MALME-3M melanoma = system: MALME-3M melanoma
# M14 melanoma = system: M14 melanoma
# UACC-62 melanoma = system: UACC-62 melanoma
# NCI/ADR-RES ovarian = system: NCI/ADR-RES ovarian
SMILES,GI50 (UO-31 renal),TGI (UO-31 renal),GI50 (SK-MEL-28 melanoma),TGI (SK-MEL-28 melanoma),TGI (DMS 114 small cell lung),GI50 (MDA-MB-435),TGI (MDA-MB-435),GI50 (OVCAR-8 ovarian),TGI (OVCAR-8 ovarian),GI50 (MALME-3M melanoma),TGI (MALME-3M melanoma),GI50 (M14 melanoma),TGI (M14 melanoma),GI50 (UACC-62 melanoma),TGI (UACC-62 melanoma),GI50 (NCI/ADR-RES ovarian),TGI (NCI/ADR-RES ovarian),GI50 (DMS 114 small cell lung)
O=c1[nH]c2ccccc2n1C1CCN(CCCC(c2ccc(F)cc2)c2ccc(F)cc2)CC1,1110 nM and 3560 nM,2.44 µM and 18.1 µM,1610 nM,2.99 µM and 5.86 µM,6520 nM,1540 nM and 4490 nM,3.06 µM and 11.5 µM,1580 nM and 9140 nM,3.28 µM and 24.3 µM,1710 nM,3.42 µM and 5.09 µM,1830 nM,3.72 µM and 8.19 µM,1380 nM and 9920 nM,2.75 µM and 23.5 µM,1460 nM and 3200 nM,2.96 µM and 13.2 µM,
c1ccc(CN2COc3c(ccc4c5c(ccc34)CN(Cc3ccccc3)CO5)C2)cc1,,> 100 µM,,> 100 µM,> 100000 nM,,> 100 µM,,> 100 µM,,> 100 µM,,> 100 µM,,> 100 µM,,> 100 µM,
C#CCNC(=O)NC(CCCCNC(=O)OCc1ccccc1)C(=O)OCc1ccccc1 (stereo not drawn),,44.6 µM,,38.5 µM,> 100000 nM,,57.1 µM,,> 100 µM,,61 µM,,58.4 µM,,33.6 µM,,> 100 µM,
COc1c(OC(C)C)cc2cc(O)c(C(=O)NC3Cc4ccc(c(Cl)n4)O[C@@H]4C=C5C#C/C(=C\C#CC6OC56C4OC4CC(C)(O)C(O)C(C)O4)C(OC4CC(O)C(N(C)C)C(C)O4)COC3=O)cc2c1OC (stereo partly drawn),> 36.3 µM and 6.42 µg/mL,> 36.3 µM and 37.5 µg/mL,3.16 µg/mL,> 36.3 µM and 37.5 µg/mL,10.4 µg/mL,,> 36.3 µM,26.7 µM and 1.18 µg/mL,> 36.3 µM and 37.5 µg/mL,0.533 µg/mL,> 36.3 µM and 37.5 µg/mL,32.7 µM and 2.8 µg/mL,> 36.3 µM and 21.4 µg/mL,4.33 µM and 0.511 µg/mL,21 µM and 7.44 µg/mL,,> 36.3 µM,0.926 µg/mL
COc1c(CC=C(C)C)c(O)c(C(CC(C)C)c2c(O)c(CC=C(C)C)c(O)c(C(C)=O)c2O)c(O)c1C(C)=O (stereo not drawn),,11.1 µM,,5.21 µM,575 nM,,6.47 µM,,10.3 µM,,6.45 µM,,5.72 µM,,2.22 µM,,10.2 µM,
N#CNC1=NC(N)C(c2nc3ccccc3[nH]2)=C(CCCC(=O)Nc2cccc([N+](=O)[O-])c2)N1 (stereo not drawn),,> 100 µM,,> 100 µM,> 100000 nM,,,,> 100 µM,,> 100 µM,,> 100 µM,,> 100 µM,,,
C/C(=N\NC(=S)N1CCN(c2ccccn2)CC1)c1ncccn1,535 nM,4.58 µM and 13.7 µM,566 nM,7.1 µM and 14.1 µM,271 nM and 1080 nM,414 nM,11.9 µM,15.4 nM,5.4 µM and 16.4 µM,550 nM,5.93 µM and 18.3 µM,93.8 nM,6.06 µM and 2.61 µM,57 nM,0.58 µM and 4.19 µM,,3.95 µM and 0.403 µM,
